Data published in ChEMBL document CHEMBL1138891, “3-(4-Piperidinyl)indoles and 3-(4-piperidinyl)pyrrolo-[2,3-b]pyridines as ligands for the ORL-1 receptor” (Bioorg Med Chem Lett, 2006).

What was measured:
[1] = Half life in human liver microsomes; type: ADME, Microsome
[2] = Stability in human liver microsome after 60 mins; type: ADME; settings: liver microsomes, read-out: Stability

SMILES: c1cc2c3c(cccc3c1)C(N1CCC(c3c[nH]c4ncccc34)CC1)C2 (configuration not stated)
- half-life [1]: 15 min
- remaining at 1 h [2]: 14%
